Tests used:
KRas G12D [1] = molecular target: T1, KRas G12D (Homo sapiens (Human), UniProt P01116, G12D); assay: KRas G12D Surface Plasmon Resonance (SPR) Binding Assay; conditions: Biacore T200, immobilized biotinylated KRAS protein, 1:1 binding model
Protocol: Briefly, 1 L of 1.05× HBS-Mg buffer (262.5 mM Bioultra Hepes, pH 7.5, 157.5 mM NaCl, 105 mM MgCl2, 0.525 mM TCEP, 0.0305% Brij-35) was prepared and filter sterilized using a 0.22 μm bottle top filter. Approximately 50 mL of 1.05× HBS-Mg buffer was removed and saved for future dilutions. A 50 mL aliquot of DMSO (Sigma Aldrich DMSO Lot. #SHBK2079) was added and continued to stir for 10 minutes, creating the final 1.0× HBS-Mg buffer (250 mM Bioultra Hepes pH 7.5, 150 mM NaCl, 100 mM MgCl2, 0.5mM TCEP, 0.03% Brij-35).
Biacore T200 instrument was primed using 1.0× HBS-Mg buffer before docking a GE Streptavidin (SA) chip and then primed two additional times prior to beginning the immobilization step. All immobilized protein mixtures were created using 3-5mg/mL Biotinylated Avidin-tagged KRAS protein using the following immobilization settings: SA chip type, 1 flow cells per cycle, 720 second contact time, and 5 ul/min flow rate. Normalization of the detector was also performed during the immobilization step using the GE Biallormalize solution.
All compounds were diluted to 10 mM in 100% DMSO prior to being diluted 20× in 1.05× buffer. […] Data evaluation was performed using the Biacore T200 Evaluation software and data fit to 1:1 binding model.
Target sequence in this assay (P01116-2 other isoform, or with tags, fused parts or gaps G12D): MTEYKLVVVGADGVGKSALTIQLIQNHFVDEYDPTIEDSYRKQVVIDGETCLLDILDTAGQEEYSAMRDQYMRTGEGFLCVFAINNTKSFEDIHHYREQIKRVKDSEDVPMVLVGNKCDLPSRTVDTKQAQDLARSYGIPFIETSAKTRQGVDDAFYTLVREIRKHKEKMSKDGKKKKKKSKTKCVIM

KRas G12D [2] = molecular target: T1, KRas G12D; assay: KRas G12D Binding Assay (TR-FRET displacement); conditions: TR-FRET displacement of Cy5 labelled tracer, GDP-loaded KRAS G12D, 60 minute incubation at 22° C.
Protocol: After a 60 minute incubation at 22° C., the reaction was measured using a PerkinElmer EnVision multimode plate reader via TR-FRET dual wavelength detection, and the percent of control (POC) calculated using a ratiometric emission factor. […] The POC values were fit to a 4-parameter logistic curve and the IC50 value was determined as the concentration where the curve crosses 50 POC.
Target sequence in this assay (P01116 other isoform, or with tags, fused parts or gaps G12D): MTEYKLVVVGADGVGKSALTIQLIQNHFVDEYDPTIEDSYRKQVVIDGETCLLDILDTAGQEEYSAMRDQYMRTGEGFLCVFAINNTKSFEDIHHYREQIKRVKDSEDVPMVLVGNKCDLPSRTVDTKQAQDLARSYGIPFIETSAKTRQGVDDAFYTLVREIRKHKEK

[3] = tested on: KRas G12D-mediated phosphorylation of ERK; assay: Inhibition of KRas G12D-mediated phosphorylation of ERK in AGS cells; format: cell-based; conditions: Homo sapiens; AGS cells expressing G12D, 3 hours, phospho-ERK normalized to GAPDH
In short: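 In-cell Western: p-ERK Thr202/Tyr204 signal over GAPDH, as % of DMSO control, with IC50 from a 4-parameter curve. AGS cells seeded 40,000/well for 12-14 h, exposed to compound 3 h at 0.5% DMSO final, then formaldehyde-fixed and methanol-permeabilized.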

Row | SMILES | Kd (KRas G12D [1]) [µM] | IC50 (KRas G12D [2]) [µM] | IC50 [3] [µM]
1 | Oc1cc(-c2ncc3c(N4C[C@H]5CC[C@@H](C4)N5)nc(OCCc4ncccn4)nc3c2F)c2ccccc2c1 [Example 7, 4-(4-((1R,5S)-3,8-diazabicyclo[3.2.1]octan-3-yl)-8-fluoro-2-(2-(pyrimidin-2-yl)ethoxy)pyrido[4,3-d]pyrimidin-7-yl)naphthalen-2-ol] | 0.464 | 1.87 | –
2 | Oc1cc(-c2ncc3c(N4C[C@H]5CC[C@@H](C4)N5)nc(OCCCN4C[C@@H]5C[C@H]4CO5)nc3c2F)c2ccccc2c1 [Example 24, 4-(2-(3-((1S,4S)-2-oxa-5-azabicyclo[2.2.1]heptan-5-yl)propoxy)-4-((1R,5S)-3,8-diazabicyclo[3.2.1]octan-3-yl)-8-fluoropyrido[4,3-d]pyrimidin-7-yl)naphthalen-2-ol] | 0.005 | 0.0079 | 2.89
3 | Cn1c(CCOc2nc(N3C[C@H]4CC[C@@H](C3)N4)c3cnc(-c4cc(O)cc5ccccc45)c(F)c3n2)nc2ccccc21 [Example 30, 4-(4-((1R,5S)-3,8-diazabicyclo[3.2.1]octan-3-yl)-8-fluoro-2-(2-(1-methyl-1H-benzo[d]imidazol-2-yl)ethoxy)pyrido[4,3-d]pyrimidin-7-yl)naphthalen-2-ol] | 0.18 | 0.418 | 9.6
4 | Fc1c(-c2cncc3cccc(Cl)c23)ncc2c(N3C[C@H]4CC[C@@H](C3)N4)nc(OCC34CCCN3CCC4)nc12 [Example 33, 4-((1R,5S)-3,8-diazabicyclo[3.2.1]octan-3-yl)-7-(5-chloroisoquinolin-4-yl)-8-fluoro-2-((tetrahydro-1H-pyrrolizin-7a(5H)-yl)methoxy)pyrido[4,3-d]pyrimidine bis(2,2,2-trifluoroacetate)] | 0.0717 | 0.0211 | 2.05
5 | O[C@@H]1C[C@@H]2CN(c3nc(OCC45CCCN4CCC5)nc4c(F)c(-c5cccc6cccc(Cl)c56)ncc34)C[C@H]1N2 [Example 49, (1R,5R,6R)-3-(7-(8-chloronaphthalen-1-yl)-8-fluoro-2-((tetrahydro-1H-pyrrolizin-7a(5H)-yl)methoxy)pyrido[4,3-d]pyrimidin-4-yl)-3,8-diazabicyclo[3.2.1]octan-6-ol] | 0.0004 | 0.0059 | 2.12
6 | OC[C@@H](O)COc1nc(N2C[C@H]3CC[C@@H](C2)N3)c2cnc(-c3cccc4cccc(Cl)c34)c(F)c2n1 [Example 56, (R)-3-((4-((1R,5S)-3,8-diazabicyclo[3.2.1]octan-3-yl)-7-(8-chloronaphthalen-1-yl)-8-fluoropyrido[4,3-d]pyrimidin-2-yl)oxy)propane-1,2-diol] | 5.17 | 5.92 | –
7 | OCC(O)CCOc1nc(N2C[C@H]3CC[C@@H](C2)N3)c2cnc(-c3cccc4cccc(Cl)c34)c(F)c2n1 (stereo partly drawn) [Example 57, 4-((4-((1R,5S)-3,8-diazabicyclo[3.2.1]octan-3-yl)-7-(8-chloronaphthalen-1-yl)-8-fluoropyrido[4,3-d]pyrimidin-2-yl)oxy)butane-1,2-diol] | > 1000 | 7.29 | –
8 | OCC(COc1nc(N2C[C@H]3CC[C@@H](C2)N3)c2cnc(-c3cccc4cccc(Cl)c34)c(F)c2n1)c1cccnc1 (stereo partly drawn) [Example 59, 3-((4-((1R,5S)-3,8-diazabicyclo[3.2.1]octan-3-yl)-7-(8-chloronaphthalen-1-yl)-8-fluoropyrido[4,3-d]pyrimidin-2-yl)oxy)-2-(pyridin-3-yl)propan-1-ol] | 1.12 | 0.946 | –
9 | [O-][N+]12CCCC1(COc1nc(N3CC4CCC(C3)N4)c3cnc(-c4cccc5cccc(Cl)c45)c(F)c3n1)CCC2 [Example 60, 7a-(((4-((1R,5S)-3,8-diazabicyclo[3.2.1]octan-3-yl)-7-(8-chloronaphthalen-1-yl)-8-fluoropyrido[4,3-d]pyrimidin-2-yl)oxy)methyl)hexahydropyrrolizine 4(1H)-oxide] | > 1000 | 1.66 | > 16.7
10 | Oc1cc(-c2ncc3c(N4C[C@H]5CC[C@@H](C4)N5)nc(OCCc4ccccc4F)nc3c2F)c2ccccc2c1 [Example 67, 4-(4-((1R,5S)-3,8-diazabicyclo[3.2.1]octan-3-yl)-8-fluoro-2-(2-fluorophenethoxy)pyrido[4,3-d]pyrimidin-7-yl)naphthalen-2-ol] | 1.15 | 1.25 | –
11 | CN1CCC[C@H]1COc1nc(N2C[C@H]3CC[C@@H](C2)N3)c2cnc(-c3cccc4cccc(CCC#N)c34)c(F)c2n1 [Example 117, 3-(8-(4-((1R,5S)-3,8-diazabicyclo[3.2.1]octan-3-yl)-8-fluoro-2-(((S)-1-methylpyrrolidin-2-yl)methoxy)pyrido[4,3-d]pyrimidin-7-yl)naphthalen-1-yl)propanenitrile bis(2,2,2-trifluoroacetate)] | 1 | 0.731 | –
12 | CC(C)N1CCC[C@H]1COc1nc(N2C[C@H]3C[C@@H](O)[C@@H](C2)N3)c2cnc(-c3cccc4cccc(Cl)c34)c(F)c2n1 [Example 153, (1R,5R,6R)-3-(7-(8-chloronaphthalen-1-yl)-8-fluoro-2-(((S)-1-isopropylpyrrolidin-2-yl)methoxy)pyrido[4,3-d]pyrimidin-4-yl)-3,8-diazabicyclo[3.2.1]octan-6-ol] | 0.0705 | 0.0508 | 2.37
13 | COC(=O)C12CCC(CN(c3nc(OC[C@@H]4CCCN4C)nc4c(F)c(-c5cc(O)cc6ccccc56)ncc34)C1)N2 (stereo partly drawn) [Example 158, methyl 3-(8-fluoro-7-(3-hydroxynaphthalen-1-yl)-2-(((S)-1-methylpyrrolidin-2-yl)methoxy)pyrido[4,3-d]pyrimidin-4-yl)-3,8-diazabicyclo[3.2.1]octane-1-carboxylate bis(2,2,2-trifluoroacetate)] | 0.33 | 0.0737 | 4.22
14 | C#Cc1c(F)ccc2cc(O)cc(-c3ncc4c(N5CC6CCC(C5)N6)nc(OC[C@]56CCCN5[C@@H](COC(=O)N(C)C)CC6)nc4c3F)c12 [Example 440, ((3R,7aR)-7a-(((4-((1R,5S)-3,8-diazabicyclo[3.2.1]octan-3-yl)-7-(8-ethynyl-7-fluoro-3-hydroxynaphthalen-1-yl)-8-fluoropyrido[4,3-d]pyrimidin-2-yl)oxy)methyl)hexahydro-1H-pyrrolizin-3-yl)methyl dimethyl carbamate] | – | 0.0008 | 0.0084

Source: patent publication US11453683B1, “KRas G12D inhibitors” (Mirati Therapeutics, Inc., priority 2019, dated 2022)
